In PubChem BioAssay AID256 (DTP/NCI, 2004):
Values joined by “and” are separate entries in the source; they are usually repeats but may differ in a detail not shown here. Equal values may be shown once. Toxic doses and inconclusive results are not listed. Rule for the calls: active = survival T/C of 150% or more; inactive = T/C below 125% in these data.

Test system: CD2F1 mice, L1210 leukemia ip, survival T/C
Assay: NCI In Vivo Anticancer Drug Screen. Data for tumor model L1210 Leukemia (intraperitoneal) in CD2F1 (CDF1) mice
Details: higher = longer survival
In short: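 Ratio T/C, where T is the treated-group value and C the vehicle-dosed control value, from mice implanted with a transplantable tumor.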

[1] = endpoint: mean survival time, dose: 100.0 mg/kg/injection, schedule: Q01DX009 (ip), vehicle: saline with Tween-80
[2] = endpoint: mean survival time, dose: 200.0 mg/kg/injection, schedule: Q01DX009 (ip), vehicle: saline with Tween-80
[3] = endpoint: mean survival time, dose: 200.0 mg/kg/injection, schedule: Q01DX001 (ip), vehicle: saline with Tween-80
[4] = endpoint: mean survival time, dose: 100.0 mg/kg/injection, schedule: Q04DX003 (ip), vehicle: saline with Tween-80
[5] = endpoint: mean survival time, dose: 200.0 mg/kg/injection, schedule: Q04DX003 (ip), vehicle: saline with Tween-80
[6] = endpoint: mean survival time, dose: 400.0 mg/kg/injection, schedule: Q01DX009 (ip), vehicle: saline with Tween-80
[7] = endpoint: mean survival time, dose: 400.0 mg/kg/injection, schedule: Q04DX003 (ip), vehicle: saline with Tween-80

Measured: T/C

c1cncc(CCc2cccnc2)c1
inactive: endpoint: mean survival time, dose: 100.0 mg/kg/injection, schedule: Q04DX003 (ip), vehicle: saline 100 % of control | endpoint: mean survival time, dose: 200.0 mg/kg/injection, schedule: Q04DX003 (ip), vehicle: saline 100 % of control

CN/N=C/c1ccc(O)c(OC)c1
inactive: [1] 91 % of control | [2] 87 % of control

CC1(C)CC(=O)C=C(N2CCC(CCCC3CCN(C4=CC(=O)CC(C)(C)C4)CC3)CC2)C1
inactive: endpoint: mean survival time, dose: 50.0 mg/kg/injection, schedule: Q01DX009 (ip), vehicle: saline with Tween-80 102 % of control | endpoint: mean survival time, dose: 100.0 mg/kg/injection, schedule: Q01DX001 (ip), vehicle: saline with Tween-80 100 % of control | [1] 95 % of control | [3] 93 % of control

CCOC(=O)c1ccc(NC(=O)OCc2ccco2)cc1
inactive: [1] 92 % of control and 98 % of control | endpoint: mean survival time, dose: 100.0 mg/kg/injection, schedule: Q04DX002 (ip), vehicle: saline with Tween-80 88 % of control and 102 % of control | [4] 94 % of control | [2] 92 % of control and 100 % of control | endpoint: mean survival time, dose: 200.0 mg/kg/injection, schedule: Q04DX002 (ip), vehicle: saline with Tween-80 86 % of control and 91 % of control | [5] 87 % of control | [6] 113 % of control and 96 % of control | endpoint: mean survival time, dose: 400.0 mg/kg/injection, schedule: Q04DX002 (ip), vehicle: saline with Tween-80 87 % of control and 88 % of control | [7] 89 % of control

O=C(O)C(=O)O.[NH-]CC(O)CN(CC(O)CO)c1ccccc1.[Pt+2] (configuration not stated)
inactive: endpoint: median survival time, dose: 10.0 mg/kg/injection, schedule: Q04DX003 (ip), vehicle: distilled water + Tween-80 100 % of control | endpoint: median survival time, dose: 20.0 mg/kg/injection, schedule: Q04DX003 (ip), vehicle: distilled water + Tween-80 98 % of control | endpoint: median survival time, dose: 40.0 mg/kg/injection, schedule: Q04DX003 (ip), vehicle: distilled water + Tween-80 101 % of control | endpoint: median survival time, dose: 80.0 mg/kg/injection, schedule: Q04DX003 (ip), vehicle: distilled water + Tween-80 102 % of control

C1CC2C3CCC(C3)C2C1 (configuration not stated)
inactive: [1] 103 % of control | [2] 102 % of control | [6] 96 % of control

Nc1nc(N)c2nc(CNc3ccc(C(=O)NC(CCC(=O)O)C(=O)O)cc3)cnc2n1 (configuration not stated)
active: endpoint: mean survival time, dose: 0.2 mg/kg/injection, schedule: Q01DX009 (ip), vehicle: alkali diluted with saline 150 % of control | endpoint: mean survival time, dose: 0.3 mg/kg/injection, schedule: Q01DX009 (ip), vehicle: alkali diluted with saline 156 % of control | endpoint: mean survival time, dose: 0.44 mg/kg/injection, schedule: Q01DX009 (ip), vehicle: alkali diluted with saline 174 % of control | endpoint: mean survival time, dose: 0.67 mg/kg/injection, schedule: Q01DX009 (ip), vehicle: alkali diluted with saline 166 % of control
inactive: endpoint: mean survival time, dose: 0.7 mg/kg/injection, schedule: Q01DX009 (ip), vehicle: alkali diluted with saline 118 % of control | endpoint: mean survival time, dose: 1.0 mg/kg/injection, schedule: Q01DX009 (ip), vehicle: alkali diluted with saline 114 % of control | endpoint: mean survival time, dose: 1.1 mg/kg/injection, schedule: Q01DX009 (ip), vehicle: alkali diluted with saline 96 % of control | endpoint: mean survival time, dose: 1.5 mg/kg/injection, schedule: Q01DX009 (ip), vehicle: alkali diluted with saline 104 % of control | endpoint: mean survival time, dose: 1.7 mg/kg/injection, schedule: Q01DX009 (ip), vehicle: alkali diluted with saline 86 % of control

COC(=O)C(CCl)NC(C)=O (configuration not stated)
inactive: [1] 96 % of control and 101 % of control | [2] 96 % of control and 102 % of control | [6] 108 % of control and 98 % of control

N=C(N)N(CCS)CC(=O)O
inactive: [3] 87 % of control | endpoint: mean survival time, dose: 400.0 mg/kg/injection, schedule: Q01DX001 (ip), vehicle: saline with Tween-80 90 % of control

CCCCOc1ccccc1NC(=O)CCl
inactive: [1] 97 % of control | [2] 92 % of control | [6] 95 % of control

c1ccc(CCc2nc3ccccc3o2)cc1
inactive: [4] 98 % of control | [5] 102 % of control | [7] 93 % of control

CCCCCC(/C=N\N=C\c1ccco1)=C\c1ccccc1
inactive: [4] 93 % of control | [5] 93 % of control | [7] 96 % of control
